Measurements: patent publication US20190079094A1, “SUBCELLULAR LOCALIZATION OF TARGET ANALYTES” (Beckman Coulter, Inc., priority 2016, published 2019)
“Also recorded” adds a separate entry of the source.

Assays:
Assay type in all cases: cell-based
granulocytes = assay: Detergent titration for differential permeabilization of granulocytes (HSP60, Lamin A/C); details: detergent alone
Source text: FIG. 6. Titration of Detergents In Order to Identify the Optimal Concentrations for Cytoplasmic vs. Nuclear Membrane Permeabilization of Granulocytes. […] As in FIG. 5, HSP60 and Lamin A/C were used to indicate the degree of mitochondrial inner membrane and nuclear membrane permeabilization, respectively.
For Peripheral Blood Mononuclear Cells (PBMCs), cell lines, and other purified cells, Buffer 1 and Buffer 2 have different compositions than for whole blood; however, the protocol is otherwise the same. Most cell lines perform similar to PBMCs. In addition, whole-blood granulocytes may require a different buffer combination to appropriately permeabilize their cytoplasmic vs. nuclear compartments.
In some cases, using the defined buffers for the Subcellular Localization Kit may not effectively and reproducibly permeabilize granulocytes as they do mononuclear cells, and can be better targeted with a different detergent combination. […] Tween 20 at a concentration >0.5% can be seen to permeabilized the cytoplasmic+mitochondrial membranes without permeabilizing the nuclear membrane, while Digitonin and TX-100 alone at lower concentrations will permeabilize the nuclear or mitochondrial membranes, respectively. Ultimately, differential permeabilization of granulocytes can be more complex than for mononuclear cells depending on the target organelles.

[1] = tested on: NF-κB and AKT signaling in whole-blood monocytes and T cells; assay: LPS stimulation of whole blood, cytoplasmic vs. nuclear signaling; details: 1 μg/mL LPS
Experimental: FIGS. 7A and 7B. Stimulation of Monocytes with 1 μg/mL LPS. A) Comparison of the scatter profiles between Buffer 1 and Buffer 2 lysis, as well as the gating workflow. B) Cytoplasmic vs. nuclear signaling in whole-blood monocytes. C) Cytoplasmic vs. nuclear signaling in T cells.
(§1) The protocol for processing whole blood samples is as follows (see FIG. 1 for a workflow): 1) The sample is first mixed 1:1 with fixative, vortexed, and then incubated for 10 minutes. An extra control tube is included for each buffer, which is stained with all antibodies except for the specific signaling or target antibodies being tested in order to subtract the background signal. […] 6) Once stained, the samples are again washed 2× with PBS or wash buffer, resuspended in PBS+0.5% PFA, and read on a flow cytometer.
(§2) After data acquisition, the samples are gated, compensated, and analyzed as standard flow cytometry samples. […] For example, if staining for the subcellular distribution of FoxP3, where the Background MFIs for the Cytoplasm and Whole Cell are 1.5 and the raw FoxP3 signal is 3.5 and 31.5 for the Cytoplasm and Whole Cell, respectively, then the Cytoplasmic MFI would be calculated to be 2 (i.e., 3.5 (raw)−1.5 (background)=2) and the Nuclear MFI would be calculated to be 28 (i.e., 31.5 (raw)−1.5 (background)−2 (Cytoplasm)=28). […]

[2] = tested on: CREB, RelA and ERK phosphorylation in monocytes; assay: Stimulation of monocytes with LPS or GM-CSF, cytoplasmic vs. nuclear signaling; details: primarily cytoplasm, 1 μg/mL LPS or 100 ng/mL GM-CSF
Experimental: FIG. 8. Differential Signaling in Monocytes Induced by 1 μg/mL LPS vs. 100 ng/mL GM-CSF. A) Both LPS and GM-CSF induced CREB phosphorylation at S133, accumulating maximally in the nucleus by 10 min. B) LPS stimulation induced RelA phosphorylation maximally by 10 min in both the cytoplasm and nucleus, though predominantly in the nucleus. C) Both LPS and GM-CSF stimulated ERK phosphorylation primarily in the cytoplasm, maximally by 5 min for GM-CSF and 10 min for LPS.
as §1, with “signal. The background control may also be labeled with isotype-control antibodies for more precise determination of non-specific binding, especially in cells that have characteristically high non-specific binding, such as neutrophils. For indirect antibody labeling, omitting the primary antibody, but still utilizing the secondary antibody, is a common method for determining the degree of non-specific background signal attributable to the secondary antibody, which is typically higher than the direct conjugates of target antibodies.” for “signal.”
as §2

Compound	concentration permeabilizing the cytoplasmic+mitochondrial membranes without the nuclear membrane (granulocytes)	signaling induced in T cells [1]	time of peak ERK phosphorylation (S202/T204) [2]
CCCCCCCCCCCC(=O)OCCOCCOCCOCCOCCOCCOCCOCCOCCOCCOCCOCCOCCOCCOCCOCCOCCOCCOCCOCCOCC(OCCOCCOCCOCCOCCOCCOCCOCCOCCOCCOCCOCCOCCOCCOCCOCCOCCOCCOCCOCCO)C1OCC(OCCOCCOCCOCCOCCOCCOCCOCCOCCOCCOCCOCCOCCOCCOCCOCCOCCOCCOCCOCCO)C1OCCOCCOCCOCCOCCOCCOCCOCCOCCOCCOCCOCCOCCOCCOCCOCCOCCOCCOCCOCCO (stereo not drawn) [Tween 20, Polysorbate 20]	> 0.5%	–	–
lipopolysaccharide [LPS]	–	did not stimulate T cells; also recorded: lack of any signaling induced in T cells	≤ 10 min
